Test results reported in PubChem BioAssay (NCI).
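Dose response: 5 concentrations. Exposure: 48 h. Format: 96-well plates. Endpoint: linear interpolation; highest concentration if not reached. TGI denotes the concentration required for complete inhibition of growth.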

Legend:
Experiment in all cases: growth of human tumour cells (NCI), 48 h
OVCAR-4 ovarian = system: OVCAR-4 ovarian
SK-MEL-2 melanoma = system: SK-MEL-2 melanoma
CAKI-1 renal = system: CAKI-1 renal
MDA-MB-435 = system: MDA-MB-435
SW-620 colon = system: SW-620 colon
SNB-19 CNS = system: SNB-19 CNS
HCT-116 colon = system: HCT-116 colon
SK-MEL-5 melanoma = system: SK-MEL-5 melanoma
RXF 393 renal = system: RXF 393 renal
HCC-2998 colon = system: HCC-2998 colon
BT-549 breast = system: BT-549 breast
NCI/ADR-RES ovarian = system: NCI/ADR-RES ovarian
NCI-H460 lung = system: NCI-H460 lung
HT29 colon = system: HT29 colon
786-0 renal = system: 786-0 renal
LOX IMVI melanoma = system: LOX IMVI melanoma
COLO 205 colon = system: COLO 205 colon
SR leukemia = system: SR leukemia
TK-10 renal = system: TK-10 renal
OVCAR-5 ovarian = system: OVCAR-5 ovarian
HCT-15 colon = system: HCT-15 colon
SF-295 CNS = system: SF-295 CNS
SF-268 CNS = system: SF-268 CNS
UACC-257 melanoma = system: UACC-257 melanoma
RPMI-8226 leukemia = system: RPMI-8226 leukemia
SN12C renal = system: SN12C renal
SK-MEL-28 melanoma = system: SK-MEL-28 melanoma
SNB-75 CNS = system: SNB-75 CNS
M14 melanoma = system: M14 melanoma
KM12 colon = system: KM12 colon
SF-539 CNS = system: SF-539 CNS
MDA-MB-231 breast = system: MDA-MB-231 breast
EKVX NSCLC = system: EKVX NSCLC
MALME-3M melanoma = system: MALME-3M melanoma
MCF7 breast = system: MCF7 breast
NCI-H23 lung = system: NCI-H23 lung
NCI-H522 lung = system: NCI-H522 lung
A549 NSCLC = system: A549 NSCLC
DU-145 prostate = system: DU-145 prostate
UACC-62 melanoma = system: UACC-62 melanoma
T-47D breast = system: T-47D breast
IGROV1 ovarian = system: IGROV1 ovarian
ACHN renal = system: ACHN renal
OVCAR-8 ovarian = system: OVCAR-8 ovarian
HOP-92 NSCLC = system: HOP-92 NSCLC
HS 578T breast = system: HS 578T breast
A498 renal = system: A498 renal
HOP-62 NSCLC = system: HOP-62 NSCLC
OVCAR-3 ovarian = system: OVCAR-3 ovarian
U251 CNS = system: U251 CNS
MOLT-4 leukemia = system: MOLT-4 leukemia
CCRF-CEM leukemia = system: CCRF-CEM leukemia
PC-3 prostate = system: PC-3 prostate
NCI-H226 lung = system: NCI-H226 lung
UO-31 renal = system: UO-31 renal
HL-60(TB) leukemia = system: HL-60(TB) leukemia
MDA-N = system: MDA-N
SK-OV-3 ovarian = system: SK-OV-3 ovarian
K-562 leukemia = system: K-562 leukemia

O=c1[nH]c(=O)n(C/C=C/CO)nc1Br
TGI (OVCAR-4 ovarian): > 100 µM | TGI (SK-MEL-2 melanoma): > 100 µM | TGI (CAKI-1 renal): > 100 µM | TGI (MDA-MB-435): > 100 µM | TGI (SW-620 colon): > 100 µM | TGI (SNB-19 CNS): > 100 µM | TGI (HCT-116 colon): > 100 µM | TGI (SK-MEL-5 melanoma): > 100 µM | TGI (RXF 393 renal): > 100 µM | TGI (HCC-2998 colon): > 100 µM | TGI (BT-549 breast): > 100 µM | TGI (NCI/ADR-RES ovarian): > 100 µM | TGI (NCI-H460 lung): > 100 µM | TGI (HT29 colon): > 100 µM | TGI (786-0 renal): > 100 µM | TGI (LOX IMVI melanoma): > 100 µM | TGI (COLO 205 colon): > 100 µM | TGI (SR leukemia): > 100 µM | TGI (TK-10 renal): > 100 µM | TGI (OVCAR-5 ovarian): > 100 µM | TGI (HCT-15 colon): > 100 µM | TGI (SF-295 CNS): > 100 µM | TGI (SF-268 CNS): > 100 µM | TGI (UACC-257 melanoma): > 100 µM | TGI (RPMI-8226 leukemia): > 100 µM | TGI (SN12C renal): > 100 µM | TGI (SK-MEL-28 melanoma): > 100 µM | TGI (SNB-75 CNS): > 100 µM | TGI (M14 melanoma): > 100 µM | TGI (KM12 colon): > 100 µM | TGI (SF-539 CNS): > 100 µM | TGI (MDA-MB-231 breast): > 100 µM | TGI (EKVX NSCLC): > 100 µM | TGI (MALME-3M melanoma): > 100 µM | TGI (MCF7 breast): > 100 µM | TGI (NCI-H23 lung): > 100 µM | TGI (NCI-H522 lung): > 100 µM | TGI (A549 NSCLC): > 100 µM | TGI (DU-145 prostate): > 100 µM | TGI (UACC-62 melanoma): > 100 µM | TGI (T-47D breast): > 100 µM | TGI (IGROV1 ovarian): > 100 µM | TGI (ACHN renal): > 100 µM | TGI (OVCAR-8 ovarian): > 100 µM | TGI (HOP-92 NSCLC): > 100 µM | TGI (HS 578T breast): > 100 µM | TGI (A498 renal): > 100 µM | TGI (HOP-62 NSCLC): > 100 µM | TGI (OVCAR-3 ovarian): > 100 µM | TGI (U251 CNS): > 100 µM | TGI (MOLT-4 leukemia): > 100 µM | TGI (CCRF-CEM leukemia): > 100 µM | TGI (PC-3 prostate): > 100 µM | TGI (NCI-H226 lung): > 100 µM | TGI (UO-31 renal): > 100 µM | TGI (HL-60(TB) leukemia): > 100 µM | TGI (MDA-N): > 100 µM

CC1(C)C2CC(O)C1(C)CC2=O (configuration not stated)
TGI (OVCAR-4 ovarian): > 100 µM | TGI (MDA-MB-435): > 100 µM | TGI (SW-620 colon): > 100 µM | TGI (SNB-19 CNS): > 100 µM | TGI (HCT-116 colon): > 100 µM | TGI (SK-MEL-5 melanoma): > 100 µM | TGI (RXF 393 renal): > 100 µM | TGI (HCC-2998 colon): > 100 µM | TGI (BT-549 breast): > 100 µM | TGI (SK-OV-3 ovarian): > 100 µM | TGI (NCI/ADR-RES ovarian): > 100 µM | TGI (NCI-H460 lung): > 100 µM | TGI (HT29 colon): > 100 µM | TGI (786-0 renal): > 100 µM | TGI (LOX IMVI melanoma): > 100 µM | TGI (COLO 205 colon): > 100 µM | TGI (SR leukemia): > 100 µM | TGI (TK-10 renal): > 100 µM | TGI (OVCAR-5 ovarian): > 100 µM | TGI (HCT-15 colon): > 100 µM | TGI (SF-295 CNS): > 100 µM | TGI (SF-268 CNS): > 100 µM | TGI (UACC-257 melanoma): > 100 µM | TGI (RPMI-8226 leukemia): > 100 µM | TGI (SN12C renal): > 100 µM | TGI (SK-MEL-28 melanoma): 14.8 µM | TGI (SNB-75 CNS): > 100 µM | TGI (M14 melanoma): > 100 µM | TGI (KM12 colon): > 100 µM | TGI (SF-539 CNS): > 100 µM | TGI (K-562 leukemia): > 100 µM | TGI (MDA-MB-231 breast): > 100 µM | TGI (MALME-3M melanoma): > 100 µM | TGI (MCF7 breast): > 100 µM | TGI (NCI-H23 lung): > 100 µM | TGI (NCI-H522 lung): > 100 µM | TGI (A549 NSCLC): > 100 µM | TGI (DU-145 prostate): > 100 µM | TGI (UACC-62 melanoma): > 100 µM | TGI (T-47D breast): > 100 µM | TGI (IGROV1 ovarian): > 100 µM | TGI (ACHN renal): > 100 µM | TGI (OVCAR-8 ovarian): > 100 µM | TGI (HOP-92 NSCLC): > 100 µM | TGI (HS 578T breast): > 100 µM | TGI (HOP-62 NSCLC): > 100 µM | TGI (OVCAR-3 ovarian): > 100 µM | TGI (U251 CNS): > 100 µM | TGI (MOLT-4 leukemia): > 100 µM | TGI (CCRF-CEM leukemia): > 100 µM | TGI (PC-3 prostate): > 100 µM | TGI (NCI-H226 lung): > 100 µM | TGI (UO-31 renal): > 100 µM | TGI (HL-60(TB) leukemia): > 100 µM | TGI (MDA-N): > 100 µM
